Data as given in ChEMBL document CHEMBL1156553, “Prenylated dihydrochalcones from Boronia bipinnata that inhibit the malarial parasite enzyme target hemoglobinase II” (J Nat Prod, 2008).

Experiment: Inhibition of recombinant hemoglobinase 2

IC50 [µM] | Structure (SMILES)
64 | CC(C)=CCC/C(C)=C/CC/C(C)=C/Cc1cc(CCC(=O)c2c(O)cc(O)cc2O)ccc1O [BIPINNATONE A]
51 | CC(C)=CCC/C(C)=C/Cc1cc(CCC(=O)c2c(O)cc(O)cc2O)ccc1O [BIPINNATONE B]
0.003 | CC(C)CC(=O)N[C@H](C(=O)N[C@H](C(=O)N[C@@H](CC(C)C)[C@@H](O)CC(=O)N[C@@H](C)C(=O)N[C@@H](CC(C)C)[C@@H](O)CC(=O)O)C(C)C)C(C)C [PEPSTATIN]
